According to patent US20230416242A1, “DOUBLE DEGRADERS AND USES THEREOF” (Kymera Therapeutics, Inc., priority 2020, published 2023):

Target: T1, IRAK4 (Homo sapiens, UniProt Q9NWZ3)
T1 construct: endogenous in cells; host or cells: OCI-LY10
T1 sequence (Q9NWZ3 1-460): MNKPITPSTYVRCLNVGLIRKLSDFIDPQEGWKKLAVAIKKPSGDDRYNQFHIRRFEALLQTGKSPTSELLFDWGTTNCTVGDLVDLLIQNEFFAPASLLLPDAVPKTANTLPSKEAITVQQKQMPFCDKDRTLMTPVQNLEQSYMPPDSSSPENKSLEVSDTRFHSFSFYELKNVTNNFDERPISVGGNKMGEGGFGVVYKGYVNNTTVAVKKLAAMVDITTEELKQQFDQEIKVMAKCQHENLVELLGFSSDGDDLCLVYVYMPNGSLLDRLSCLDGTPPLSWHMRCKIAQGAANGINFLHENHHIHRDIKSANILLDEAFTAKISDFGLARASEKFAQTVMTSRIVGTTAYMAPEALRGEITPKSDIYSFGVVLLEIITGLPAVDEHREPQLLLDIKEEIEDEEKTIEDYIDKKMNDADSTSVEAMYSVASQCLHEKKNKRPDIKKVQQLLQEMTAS
Assay: IRAK4 MSD degradation in OCI-LY10
Assay type: cell-based
Settings: OCI-LY10 cells, 24 hrs, Meso Scale Discovery
Description: Degradation of IRAK4 in OCI-LY10 was quantitatively measured using Meso Scale Discovery technology. OCI-LY10 cells were seeded in 96-well plates (Coming 3799) with a density of 300,000 cells per well in 100 μL fresh media. Compounds were then added to the assay plates with a final top concentration of 1 to 10 μM in a 1:3 dilution series with total of 8 doses. The assay plates were then incubated for 4 to 24 hours at 37° C. under 5% CO2. The assay plates were then centrifuged for 5 minutes and the cell pellets were treated with 100 μL/well RIPA lysis buffer (Boston BioProducts BP-115D) with proteinase inhibitors. To prepare MSD assay plates (Meso Scale Discovery Catalog number L15XA-3), the plates were coated with […] capture antibody (mouse Anti-IRAK4 antibody [2H9], ab119942) in PBS, at 40 μL/well. The plates were then incubated overnight at 4° C., washed 3 times with 150 μL/well TBST buffer (Cell Signaling Technology, Catalog number 9997S) and blocked with 150 μL/well blocking buffer (Meso Scale Discovery Catalog number R93BA-4). Cell lysates were then added to MSD assay plates and the plates were incubated at room temperature for 1 hour. The plates were then washed 3 times with 150 µL/well TBST buffer and 25 μL/well primary detection antibody (rabbit Anti-IRAK4 antibody [Y279], from Abcam. Catalog number ab32511, 1 μg/mL). The assay plates were then incubated at room temperature for 1 hour, washed 3 times with 150 μL/well TBST buffer and 25 μL/well secondary detection antibody, SULFO-TAG anti-rabbit antibody were added (anti rabbit antibody from Meso Scale Discovery, Catalog number R32AB-1, 1 μg/mL). The assay plates were then incubated at room temperature for 1 hour, washed 3 times with 150 μL/well TBST buffer, and 150 μL/well MSD reading buffer (Meso Scale Discovery catalog number R92TC-2) was added. The plates were then analyzed by a MSD reader (Meso Scale Discovery, Model Quick Plex SQ 120). The data was then analyzed by software Prism 7.0 from GraphPad and the dose-depended IRAK4 degradation were fit using a three-parameter logistic equation to calculate DC50.
The letter codes for IRAK4 DC50 include: A (<1 μM); B (1-10 μM); and C ([…]).

Compound | DC50 [nM]
CC(C)(O)c1cc2nn([C@H]3CC[C@H](CN4CCC(CCN(CCCCN5CCC(c6ccc(Nc7nc(N8CCCCC8)cnc7C(N)=O)cc6)CC5)c5cccc6c5C(=O)N(C5CCC(=O)NC5=O)C6=O)CC4)CC3)cc2cc1NC(=O)c1cccc(C(F)(F)F)n1 (stereo partly shown) [Compound I-4] | < 1000
CC(C)(O)c1cc2nc([C@H]3CC[C@H](CN4CCC(CCN(CCCCN5CCC(c6ccc(Nc7nc(N8CCCCC8)cnc7C(N)=O)cc6)CC5)c5cccc6c5C(=O)N(C5CCC(=O)NC5=O)C6=O)CC4)CC3)sc2cc1NC(=O)c1cccc(C(F)(F)F)n1 (stereo partly drawn) [Compound I-5, 3-((4-(1-(4-((2-(2,6-Dioxopiperidin-3-yl)-1,3-dioxoisoindolin-4-yl)(2-(1-(((1R,4R)-4-(5-(2-hydroxypropan-2-yl)-6-(6-(trifluoromethyl)picolinamido)benzo[d]thiazol-2-yl)cyclohexyl)methyl)piperidin-4-yl)ethyl)amino)butyl)piperidin-4-yl)phenyl)amino)-5-(piperidin-1-yl)pyrazine-2-carboxamide] | < 1000
NC(=O)c1ncc(N2CCCCC2)nc1Nc1ccc(C2CCN(CCCCN(CCC3CCN(C[C@H]4CC[C@H](n5cc(NC(=O)c6cnn7ccc(N8CCOCC8)nc67)c(C(F)F)n5)CC4)CC3)c3cccc4c3C(=O)N(C3CCC(=O)NC3=O)C4=O)CC2)cc1 (stereo partly shown) [Compound I-6] | 1000 to 10000
CC(C)(O)c1cc2nc([C@H]3CC[C@H](CN4CC5(CC(C(CNc6cccc7c6C(=O)N(C6CCC(=O)NC6=O)C7=O)CN6CCC(c7ccc(Nc8nc(N9CCCCC9)cnc8C(N)=O)cc7)CC6)C5)C4)CC3)sc2cc1NC(=O)c1cccc(C(F)(F)F)n1 (stereo partly shown) [Compound I-7] | 1000 to 10000
NC(=O)c1ncc(N2CCCCC2)nc1Nc1ccc(C2CCN(CC(CNc3cccc4c3C(=O)N(C3CCC(=O)NC3=O)C4=O)C3CC4(C3)CN(C[C@H]3CC[C@H](n5cc(NC(=O)c6cnn7ccc(N8CCOCC8)nc67)c(C(F)F)n5)CC3)C4)CC2)cc1 (stereo partly shown) [Compound I-9] | < 1000
Cn1c(=O)n(C2CCC(=O)NC2=O)c2cccc(CCCCN(CCNC(=O)[C@H]3CC[C@H](n4cc5cc(NC(=O)c6cccc(C(F)(F)F)n6)c(C(C)(C)O)cc5n4)CC3)CC(=O)N3CCC(c4ccc(Nc5nc(N6CCCCC6)cnc5C(N)=O)cc4)CC3)c21 (stereo partly shown) [Compound I-15] | < 1000
Cc1ncsc1-c1ccc(CNC(=O)[C@@H]2C[C@@H](O)CN2C(=O)[C@@H](NC(=O)COCCOCCN2CCC(c3ccc(Nc4nc(N5CCCCC5)cnc4C(N)=O)cc3)CC2)C(C)(C)C)c(OCCOCCN(C)C[C@H]2CC[C@H](n3cc4cc(NC(=O)c5cccc(C(F)(F)F)n5)c(C(C)(C)O)cc4n3)CC2)c1 [Compound I-17] | 1000 to 10000

More lines, now with the values ahead:

DC50 [nM] | Compound
< 1000 | CC(C)(O)c1cc2nn([C@H]3CC[C@H](CN4CC5(CC(C(CNc6cccc7c6C(=O)N(C6CCC(=O)NC6=O)C7=O)CN6CCC(c7ccc(Nc8nc(N9CCCCC9)cnc8C(N)=O)cc7)CC6)C5)C4)CC3)cc2cc1NC(=O)c1cccc(C(F)(F)F)n1 (stereo partly shown) [Compound I-8]
< 1000 | Cn1c(=O)n(C2CCC(=O)NC2=O)c2cccc(CCCCN(CCNC(=O)[C@H]3CC[C@H](n4cc5cc(NC(=O)c6cccc(C(F)(F)F)n6)c(C(C)(C)O)cc5n4)CC3)CC(=O)N3CC(N4CCC(c5ccc(Nc6nc(N7CCCCC7)cnc6C(N)=O)cc5)CC4)C3)c21 (stereo partly drawn) [Compound I-14, 3-((4-(1-(1-(2-((4-(1-(2,6-Dioxopiperidin-3-yl)-3-methyl-2-oxo-2,3-dihydro-1H-benzo[d]imidazole-4-yl)butyl)(2-((1R,4R)-4-(6-(2-hydroxypropan-2-yl)-5-(6-(trifluoromethyl)picolinamido)-2H-indazol-2-yl)cyclohexanecarboxamido)ethyl)amino)acetyl)azetidin-3-yl)piperidin-4-yl)phenyl)amino)-5-(piperidin-1-yl)pyrazine-2-carboxamide]
1000 to 10000 | Cc1ncsc1-c1ccc(CNC(=O)[C@@H]2C[C@@H](O)CN2C(=O)[C@@H](NC(=O)COCCOCCN2CCN(C(=O)c3ccc(Nc4nc(-c5cccc(NC(=O)c6ccc(C(C)(C)C)cc6)c5C)cn(C)c4=O)cc3)CC2)C(C)(C)C)c(OCCOCCN(C)C[C@H]2CC[C@H](n3cc4cc(NC(=O)c5cccc(C(F)(F)F)n5)c(C(C)(C)O)cc4n3)CC2)c1 [Compound I-18]
